The results in this text go back to patent US4663332A, “5-substituted N-alkylated tetrazoles” (Hoffman-La Roche Inc., priority 1985, dated 1987).

Each structure is given as a SMILES string.

Experiment [1] deals with T1, PAF binding to dog platelets (Canis lupus familiaris, UniProt A0A8I3NSH0).
T1 construct: from tissue; host or cells: washed platelets from citrate-treated dog blood
T1 sequence (A0A8I3NSH0 1-343): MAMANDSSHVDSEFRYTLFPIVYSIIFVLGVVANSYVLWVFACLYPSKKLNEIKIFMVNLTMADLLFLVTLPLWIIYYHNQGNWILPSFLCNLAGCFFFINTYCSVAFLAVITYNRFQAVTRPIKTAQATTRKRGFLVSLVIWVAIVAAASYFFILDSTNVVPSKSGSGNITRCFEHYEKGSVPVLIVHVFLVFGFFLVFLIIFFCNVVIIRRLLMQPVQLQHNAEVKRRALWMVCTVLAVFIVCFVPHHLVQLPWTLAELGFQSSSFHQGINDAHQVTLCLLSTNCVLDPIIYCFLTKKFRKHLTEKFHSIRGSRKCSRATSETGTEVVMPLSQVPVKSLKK
Description: PAF Radioreceptor Binding Assay (PAF Binding). The conditions noted are these: inhibition of 3H-PAF binding to dog platelets, 10 min, room temperature. How it is done:
(1) PAF Radioreceptor Binding Assay (PAF Binding)
Platelet rich plasma is prepared by centrifugation of citrate-treated dog blood. Acidification to pH 6.5 with 0.15M citric acid and centrifugation for 10 minutes at 1000×g yields a platelet pellet which is then washed by resuspension in EDTA-Phosphate Buffered Saline (PBS) and recentrifuged. The washed platelet preparation is adjusted to 2×10^7 platelets/50 μl in 0.1% bovine serum albumin-PBS.
To a 400 μl microfuge tube containing 50 μl silicone oil (specific gravity 1.023) is added buffer, PAF standard or analog, or an extract to bring the aqueous volume to 150 μl. 50 μl of ^3 H-PAF (10,000 cpm, 45 Ci/mM) is added followed by 2×10^7 dog platelets. After mixing, incubating for 10 minutes at room temperature, and centrifuging for 1 minute in a Beckman Microfuge B (8000×g), the pellet is removed by clipping off the tip of the tube, the platelets are solubilized with 200 μl of 50% methanol and counted in 10 ml of Aquasol. […] Results obtained with representative copounds of the present invention in this assay are summarized hereinafter in Tables I and II. IC50 is drug concentration (μMolar) which inhibits PAF binding to dog platelets by 50%.

The target of another experiment is T2, TXA2 synthase (Homo sapiens, UniProt P24557).
T2 construct: using microsomal fractions from human platelets as enzyme source; from tissue; host or cells: microsomal fractions from human platelets
T2 sequence (P24557 1-533): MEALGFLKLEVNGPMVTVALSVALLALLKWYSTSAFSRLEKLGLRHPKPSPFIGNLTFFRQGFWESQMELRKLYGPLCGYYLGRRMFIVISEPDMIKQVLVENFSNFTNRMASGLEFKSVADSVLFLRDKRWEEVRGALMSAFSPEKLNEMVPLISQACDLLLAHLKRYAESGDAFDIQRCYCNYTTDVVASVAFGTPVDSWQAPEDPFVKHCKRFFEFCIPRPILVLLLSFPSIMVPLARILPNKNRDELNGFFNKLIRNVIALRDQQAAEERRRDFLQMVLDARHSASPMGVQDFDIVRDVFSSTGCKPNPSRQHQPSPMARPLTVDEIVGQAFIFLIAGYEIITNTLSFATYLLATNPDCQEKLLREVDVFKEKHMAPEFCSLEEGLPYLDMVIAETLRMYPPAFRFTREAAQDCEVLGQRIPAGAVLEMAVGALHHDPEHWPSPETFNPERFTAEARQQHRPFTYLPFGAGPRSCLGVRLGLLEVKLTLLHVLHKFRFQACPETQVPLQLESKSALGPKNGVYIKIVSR
Description: Thromboxane Synthase Inhibition, In Vitro (TXA2 Synth. Inhib.). In kind it is biochemical. The following applies: human platelet microsomes, 10 μM 14C-PGH2, 22° C., 2 min. How it is done: (2) Thromboxane Synthase Inhibition, In Vitro (TXA2 Synth. Inhib.)
TXA2 synthase activity is measured by following the conversion of ^14 C-prostaglandin endoperoxide (PGH2) to ^14 C-thromboxane A2 (TXA2) using microsomal fractions from human platelets as enzyme source. In the aqueous incubation medium, the TXA2 decomposes rapidly into TXB2. The amount of TXA2 synthase is adjusted so that under the conditions of the assay approximately 80-90% of the substrate, PGH2, is converted to product in control tubes. To prepare ^14 C-PGH2, ^14 C-AA (50-60 mCi/mmole; Rose Chem.) is incubated with sheep seminal vesicular gland microsomes for 1.5 minutes at 37° C. and then the ^14 C-PGH2 is extracted with diethylether, purified on columns oof Sephadex LH-20 or silicic acid, and stored in acetone at -70° C. Incubations are done as follows. Sufficient ^14 C-PGH2 to yield a final substrate concentration of 10 μM (30,000 cpm) is added to the incubation tubes and then the acetone is removed under nitrogen. The tubes are placed in an ice bath and then 215 μl of ice cold phosphate buffered saline, 10 μl of ethanol (control) or of test drug in ethanol, and 25 μl of the microsomal suspension are added with mixing in that order as rapidly as possible. The tubes are incubated at 22° C. for 2 minutes, the reaction is stopped and then the radioactive products and the unconverted PGH2 are extracted and analyzed by thin layer chromatography. […] The amount of ^14 C-PGH2 converted to products was used as a measure of TXA2 synthase activity. Inhibitors were tested initially at a final concentration 100 μM. Results obtained with representative compounds of the present invention in this assay are summarized hereafter in Tables I and II. IC50 is the drug concentration (μMolar) which inhibits TXA2 activity by 50%.

For experiment [2], the system named is PAF. Description: Inhibition of PAF Induced Guinea Pig Bronchoconstriction Test (Inhib. of PAF Broncho.). It is filed as in vivo, guinea pig (Hartley strain). The conditions noted are these: Cavia porcellus, iv; 1 mg/kg i.v. (1 min. pretreat). The procedure: (3) Inhibition of PAF Induced Guinea Pig Bronchoconstriction Test (Inhib. of PAF Broncho.)
Male guinea pigs (Hartley strain) weighing 300 to 500 g are anesthetized with urethane (2 g/kg) intraperitoneally and a polyethylene cannula is inserted into the jugular vein for drug administration. Tracheal pressure is recorded from a cannula inserted in the trachea and connected to a Statham pressure transducer. Propranolol (0.1 mg/kg) is administered intravenously five minutes before challenge with synthetic PAF, the animal's skeletal muscles are then paralyzed with succinylcholine (1.2 mg/kg i.v.), and the animal is respirated using a Harvard small animal respirator operating at 40 breaths/min and 2.5 cc stroke volume. Under these conditions PAF induces a dose-dependent increase in ventilatory pressure over a dose range of 0.5 to 5 μg/kg i.v. For screening purposes animals are challenged with a single dose of PAF (10 μg/kg i.v.).
The peak increase in ventilatory pressure (cm H2 O) is recorded for three control animals and five drug-treated animals and the percent inhibition determined from the following formula [formula] Results obtained with representative compounds of the invention in this test are summarized hereinafter in Tables I and II.

Experiment [3] deals with PAF. The experiment in a line: Inhibition of PAF-Induced Rat Skin Wheal Test (Inhib. of PAF Skin Wheal). It is filed as in vivo, Sprague-Dawley rats. The conditions noted are these: 5 mg/kg i.v., 5 ng PAF intradermally. How it is done:
(4) Inhibition of PAF-Induced Rat Skin Wheal Test (Inhib. of PAF Skin Wheal)
This test evaluates the ability of compounds to inhibit PAF-induced increases in vascular permeability in the skin of Sprague-Dawley rats. PAF induces a dose-dependent skin wheal response in this system over a dose range of 0.0001 to 1 μg/0.05 ml injection. The profound vasoactive activity of PAF is emphasized by the fact that the maximum skin wheal response is considerably greater than that obtained with LTE and an EC50 response is elicited at a 10-fold lower dose. […] Thirty minutes later the animals are sacrificed and the increase in vascular permeability induced by the migration of dye into the injection point in the skin is determined. For this purpose, rats are sacrificed by cervical dislocation,the dorsal skin is removed, the long and short axis of each animal is measured with a metric vernier caliper and the average diameter is obtained. Results obtained are measured as % of migration of dye as compared to untreated animals. More specifically, results are measured as a percent inhibition of the diameters of the wheals formed in a treated animals as compared to untreated animals. […]

Consider `CCCc1c(OCCCCc2nnnn2CCCc2cccnc2)ccc(C(C)=O)c1O` [H H 4 3 3-pyridyl, 1-[2-Hydroxy-3-propyl-4-[4-[1-[3-(3-pyridinyl)propyl]-1H-tetrazol-5-yl]butoxy]phenyl]ethanone], for which the IC50 in experiment [1] is 125 nM; against TXA2 synthase it was 100 to 1000 nM. Moreover, in the experiment on PAF [2], the inhibition in vivo at 1 mg/kg is 99%. The “inhibition of PAF skin wheal” value in the experiment with PAF [3] amounted to 65±3%.

A word on the IC50: it is the point on the concentration scale where inhibition reaches its midpoint. Low values mean higher potency, high ones lower potency. A word on the inhibition in vivo: it is the percentage by which the read-out fell short of the control.
